Drawing on PMC12073725, “Luminal Sweet Sensing and Enteric Nervous System Participate in Regulation of Intestinal Glucose Transporter, GLUT2” (Nutrients, 2025), this text covers EC50 for 1 compound.

The target of the assay is T1, pig T1R2–T1R3 (Sus scrofa, UniProt I1ZBR6+Q0EF93).
T1 construct: gene TAS1R2; heterodimer; full-length, custom-synthesised genes in modified pcDNA3/TO; N-terminal rat sst3 tags, C-terminal FLAG or HSV tags; HEK293PEAKrapid cells stably expressing Galpha15
T1 sequence (I1ZBR6 20-835): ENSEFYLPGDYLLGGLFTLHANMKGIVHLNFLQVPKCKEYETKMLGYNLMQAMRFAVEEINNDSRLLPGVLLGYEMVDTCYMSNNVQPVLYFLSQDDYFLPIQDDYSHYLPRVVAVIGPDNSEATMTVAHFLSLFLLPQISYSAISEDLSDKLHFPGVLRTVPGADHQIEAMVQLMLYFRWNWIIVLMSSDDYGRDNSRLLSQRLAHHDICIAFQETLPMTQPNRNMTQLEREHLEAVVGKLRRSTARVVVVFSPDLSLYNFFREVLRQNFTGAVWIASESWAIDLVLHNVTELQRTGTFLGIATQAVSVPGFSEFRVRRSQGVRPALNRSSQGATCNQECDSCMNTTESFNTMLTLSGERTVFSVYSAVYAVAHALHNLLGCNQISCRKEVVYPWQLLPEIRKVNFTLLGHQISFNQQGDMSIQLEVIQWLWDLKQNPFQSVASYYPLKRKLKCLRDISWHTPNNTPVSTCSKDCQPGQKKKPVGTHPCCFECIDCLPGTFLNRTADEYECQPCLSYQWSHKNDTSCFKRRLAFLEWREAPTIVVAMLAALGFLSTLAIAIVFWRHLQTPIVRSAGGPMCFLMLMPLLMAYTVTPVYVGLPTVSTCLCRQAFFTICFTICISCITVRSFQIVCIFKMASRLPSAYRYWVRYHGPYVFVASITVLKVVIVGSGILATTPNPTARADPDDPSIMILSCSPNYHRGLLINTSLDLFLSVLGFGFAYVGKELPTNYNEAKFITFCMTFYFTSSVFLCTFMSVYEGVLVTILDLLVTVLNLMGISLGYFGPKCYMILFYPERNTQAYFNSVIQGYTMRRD
T1 sequence (Q0EF93 19-855): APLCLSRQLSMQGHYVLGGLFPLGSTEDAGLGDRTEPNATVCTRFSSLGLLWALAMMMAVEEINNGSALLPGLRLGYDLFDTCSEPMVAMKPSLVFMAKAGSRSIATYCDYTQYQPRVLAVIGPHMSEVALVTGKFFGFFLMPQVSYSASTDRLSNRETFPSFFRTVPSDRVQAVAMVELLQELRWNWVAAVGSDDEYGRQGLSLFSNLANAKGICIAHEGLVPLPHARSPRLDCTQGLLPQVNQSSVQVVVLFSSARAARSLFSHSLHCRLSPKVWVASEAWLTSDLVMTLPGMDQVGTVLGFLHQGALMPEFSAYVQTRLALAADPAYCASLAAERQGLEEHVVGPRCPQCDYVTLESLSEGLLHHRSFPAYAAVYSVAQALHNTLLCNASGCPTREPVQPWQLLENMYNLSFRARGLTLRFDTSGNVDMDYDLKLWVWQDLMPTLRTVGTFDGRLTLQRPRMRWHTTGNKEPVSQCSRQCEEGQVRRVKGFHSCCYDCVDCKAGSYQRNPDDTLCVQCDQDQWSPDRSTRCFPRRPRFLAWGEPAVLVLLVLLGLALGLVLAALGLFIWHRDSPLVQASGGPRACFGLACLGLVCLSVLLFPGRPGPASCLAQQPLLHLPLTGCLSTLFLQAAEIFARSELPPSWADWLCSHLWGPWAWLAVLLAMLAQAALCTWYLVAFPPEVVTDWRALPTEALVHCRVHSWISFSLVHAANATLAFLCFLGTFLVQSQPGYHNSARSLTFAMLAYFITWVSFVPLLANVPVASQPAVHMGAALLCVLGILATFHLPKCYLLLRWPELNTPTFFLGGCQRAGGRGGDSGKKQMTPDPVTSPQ
In words: calcium mobilisation (Fluo-4), FlexStation3. Format: cell-based. The conditions noted are these: agonist; transfected HEK293PEAKrapid Galpha15 cells; mock-transfected control; curves in mg/mL.

Take `COc1cc(C=O)ccc1O` [vanillin]: the EC50 result is given as “activation in response to stimulation with either each sweetener component of SMF (A)”.
